The values below come from US20100184047A1, “SCREENING AND THERAPEUTIC METHOD FOR NSCLC TARGETING THE CDCA8-AURKB COMPLEX” (ONCOTHERAPY SCIENCE, INC., priority 2007, published 2010).

Residues, ends and D or L forms follow the SMILES beside them.

Common to all, as to format: cell-based
For one data set, the system named is MRC5 cells. The experiment in a line: MTT assay with 11R-peptides on normal lung fibroblasts. The note with it: MRC5, normal human lung fibroblast derived; CDCA8 and AURKB hardly detectable.
Another data set deals with BEAS-2B cells. The experiment in a line: MTT assay with 11R-peptides on bronchial epithelia derived cells. Particulars: human bronchial epithelia derived, CDCA8 and AURKB hardly detectable. The procedure: LC319, SBC-5 cells and BEAS-2B cells were incubated with the 11R-peptides at the concentration of 2.5 micromoles, 5 micromoles, and 7.5 micromoles for seven days. The medium was exchanged at every 48 hours at the appropriate concentrations of each peptide and the viability of cells was evaluated by MTT assay at 7 days after the treatment. To confirm the transduction efficiency of the peptides, the 11R-CDCA8261-280 and its control peptides labeled with fluorescein isothiocyanate (FITC) at N-terminus were synthesized. Transduction of the peptides (2.5-7.5 micromoles) was monitored by fluorescence microscopic observation after a 3-hour incubation of the peptides with the cell lines at 37 degrees C.
(In general: Tetrazolium assays rely on reduction of a dye to a coloured formazan, in cell work by metabolically active cells.)

The next data set concerns CCD19-Lu cells. The experiment in a line: Cell viability with 11R-peptides on normal lung fibroblasts. The note with it: normal human lung fibroblast derived, CDCA8 and AURKB hardly detectable.

Turning to `CC[C@H](C)[C@H](NC(=O)[C@H](CC(N)=O)NC(=O)CNC(=O)CNC(=O)CNC(=O)[C@H](CCCNC(=N)N)NC(=O)[C@H](CCCNC(=N)N)NC(=O)[C@H](CCCNC(=N)N)NC(=O)[C@H](CCCNC(=N)N)NC(=O)[C@H](CCCNC(=N)N)NC(=O)[C@H](CCCNC(=N)N)NC(=O)[C@H](CCCNC(=N)N)NC(=O)[C@H](CCCNC(=N)N)NC(=O)[C@H](CCCNC(=N)N)NC(=O)[C@H](CCCNC(=N)N)NC(=O)[C@@H](N)CCCNC(=N)N)C(=O)N[C@@H](CCCCN)C(=O)N[C@@H](CCCCN)C(=O)N[C@@H](CC(C)C)C(=O)N[C@@H](CO)C(=O)N[C@@H](CC(N)=O)C(=O)N[C@@H](CCCNC(=N)N)C(=O)N[C@@H](CC(C)C)C(=O)N[C@@H](C)C(=O)N[C@@H](CCC(N)=O)C(=O)N[C@H](C(=O)N[C@@H](CS)C(=O)N[C@@H](CO)C(=O)N[C@@H](CO)C(=O)N[C@H](C(=O)N[C@@H](CCCNC(=N)N)C(=O)N[C@H](C(=O)N[C@@H](Cc1c[nH]cn1)C(=O)N[C@@H](CCCCN)C(=O)O)[C@@H](C)O)[C@@H](C)CC)[C@@H](C)CC` [11R-CDCA8261-280] (H-RRRRRRRRRRRGGGNIKKLSNRLAQICSSIRTHK-OH), the “cell viability of normal cells” value in the data set with MRC5 cells is reported as “no off-target effect”; with BEAS-2B cells, “no significant growth suppressive effect”; in the data set on CCD19-Lu cells, “no effect”.
